Laboratory results from US20090088373A1, “USE OF COMPOSITIONS TO ENHANCE INNATE IMMUNE RESPONSE” (priority 2007, published 2009).

Columns and labels:
cathelicidin = assay: Cathelicidin mRNA expression in normal human keratinocytes (NHEK); assay type: cell-based; parameters: Cathelicidin mRNA expression (Mean) / Cathelicidin mRNA expression (means): unit not given here; settings: for Cathelicidin mRNA expression (means): 1 uM tacrolimus, 1 ug/ml CsA, 25ng/ml rapamycin; for Cathelicidin mRNA expression (Means of N = 3): Example 6, 10 nM Pimecrolimus, 1 nM 1,25D3
Method: (§1) To assess the effect of pimecrolimus on the innate immune response of the epidermis, cultures of normal human keratinocytes (NHEK) are stimulated with combinations of a concentration of 10 nM pimecrolimus, 1 μg/ml TLR 2/CD14 ligand—peptidoglycan (PGN), 10 μg/ml lipoteichoic acid (LTA), 2 0.1 μg/ml TLR 2/6 ligand—Malp-, and/or 0.1 μg/ml TLR 4/CD14 ligand—lipopolysaccharide (LPS). Expression of cathelicidin mRNA (Table 3) and protein as well as Human Beta Defensin (HBD) 2 (Table 4) and HBD3 (Table 5) expression in normal human keratinocytes is measured.
(§2) To assess the effect of pimecrolimus on the innate immune response of the epidermis, cultures of normal human keratinocytes (NHEK) are stimulated with a concentration of 10 nM pimecrolimus,1 nM 1.25 D3, 0.1 μg/ml TLR2/6 ligand Malp-2 or their combination. Expression of cathelicidin, CD14 and TLR2 mRNA normal human keratinocytes is measured and evaluated accordingly to the procedures as detailed in Example 2 above.
To assess the effect of pimecrolimus on the innate immune response of the epidermis, cultures of normal human keratinocytes (NHEK) are stimulated with a concentration of 10 nM pimecrolimus, 1 uM tacrolimus, 1 ug/ml CsA, 25ng/ml rapamycin, or a combination of pimecrolimus and rapamycin, each of these with or without 0.1 μg/ml TLR2/6 ligand Malp-2. Cathelicidin mRNA expression is evaluated.
(§3) To assess the effect of time dependent effects of pimecrolimus on the innate immune response of the epidermis, cultures of normal human keratinocytes (NHEK) are stimulated with 10 nM Pimecrolimus and low dose calciferol (1,25D3) 1 nM for different time points. mRNA expression of cathelicidin, CD14 and TLR2 is analyzed by qPCR.
To assess the effect of varying levels of pimecrolimus on the innate immune response of the epidermis, cultures of normal human keratinocytes (NHEK) are stimulated with 0 nM, 5 nM, 10 nM, 20 nM, 30 nM, […], […] and 60 nM concentrations of pimecrolimus. Expression of cathelicidin mRNA expression is measured and evaluated accordingly to the procedures as detailed in Example 2 above.
(§4) To assess the effect of calciferol on varying levels of pimecrolimus on the innate immune response of the epidermis, cultures of normal human keratinocytes (NHEK) are stimulated with 0.01 nM, 0.1 nM, 1 nM and 10 nM concentrations of pimecrolimus with or without 1 nM concentrations of calciferol for 24 hours. Expression of cathelicidin mRNA and gene expression of TLR2 is measured and evaluated accordingly to the procedures as detailed in Example 2 above.

[1] = system: Human Beta Defensin (HBD) 2; assay: HBD2 expression in normal human keratinocytes (NHEK); assay type: cell-based; parameters: unit not given here; settings: Example 2; TLR ligand alone, without Pimecrolimus
Method: as §1

HBD3 = HBD3 expression in normal human keratinocytes (NHEK); assay type: cell-based; parameters: unit not given here; settings: Example 2; TLR ligand alone, without Pimecrolimus
Method: as §1

[2] = system: Staphylococcus aureus ΔmprF; assay: Growth of S. aureus ΔmprF (OD600) mixed with lysates of stimulated normal human keratinocytes; assay type: cell-based; settings: S. aureus + lysates of NHEK stimulated with 10 nM pimecrolimus, 1 nM 1.25D3 or combination, 37° C.
Method: To assess the effect of pimecrolimus on the innate immune response of the epidermis against bacteria, cultures of normal human keratinocytes (NHEK) are stimulated with a concentration of 10 nM pimecrolimus, 1 nM 1.25D3 (active 1.25 D-hydroxy calciferol) or their combination. Cells are lysed via sonication 20 minutes in an ice bath, after which cell lysates were mixed with Staphylococcus aureus ΔmprF cultures and incubated at 37° C. Bacterial growth over time is monitored by OD600 (Table 1). To determine if Pimecrolimus alone was able to kill Staphylococcus aureus ΔmprF, Pimecrolimus in a concentration of 10 nM is co-incubated with Staphylococcus aureus ΔmprF cultures and incubated at 37° C. (Table 2). Bacterial growth is monitored by OD600 (*: p<0.05; **: p<0.01; Student's t-test).

TLR1 = TLR1 gene expression by qPCR in NHEK; assay type: cell-based, human; settings: Example 3; 10 nM pimecrolimus, 1 nM 1.25D3
Method: (§5) To assess the effect of pimecrolimus on the innate immune response of the epidermis, cultures of normal human keratinocytes (NHEK) are stimulated with a combination of a concentration of 10 nM pimecrolimus and of 1 nM 1.25D3. Gene expression of TLR1, TLR2, TLR4, TLR6 and CD14 are evaluated by qPCR. For CD14 protein expression, a Western Blot is performed and bands are quantified by densitometry using lmagej. Vehicle treated keratinocytes serve as controls. Cathelicidin protein expression is evaluated by immunofluorescence staining.

TLR2 = TLR2 gene expression by qPCR in NHEK; assay type: cell-based, human; settings: for TLR2 mRNA expression (Mean): 10 nM pimecrolimus; for TLR2 mRNA expression (Means of N = 3): Example 6, 10 nM Pimecrolimus, 1 nM 1,25D3
Method: as §5, §2, §3, §4

TLR6 = TLR6 gene expression by qPCR in NHEK; assay type: cell-based, human; settings: Example 3; 10 nM pimecrolimus, 1 nM 1.25D3
Method: as §5

CD14 = CD14 gene expression by qPCR in NHEK; assay type: cell-based, human; settings: for CD14 mRNA expression (Mean): 10 nM pimecrolimus; for CD14 mRNA expression (Means of N = 3): Example 6, 10 nM Pimecrolimus, 1 nM 1,25D3
Method: as §5, §2, §3

[3] = Example 2, TLR ligand alone, without Pimecrolimus (1 μg/ml PGN, 10 μg/ml LTA, 0.1 μg/ml Malp-2, 0.1 μg/ml LPS)
[4] = Example 5, Experiment 1, with 0.1 μg/ml Malp-2, 10 nM pimecrolimus
[5] = Example 5, Experiment 1, without Malp-2, 10 nM pimecrolimus
[6] = Example 5, Experiment 2, with 0.1 μg/ml Malp-2, 10 nM pimecrolimus
[7] = Example 5, Experiment 2, without Malp-2, 10 nM pimecrolimus
[8] = Example 4, 1 nM 1.25 D3, 0.1 μg/ml Malp-2 or combination

lipoteichoic acid [LTA]
Cathelicidin mRNA expression (Mean) (cathelicidin; [3]): 3.82
HBD2 expression (Mean) [1]: 4.43
HBD3 expression (Mean) (HBD3): 2.46

lipopolysaccharide [LPS]
Cathelicidin mRNA expression (Mean) (cathelicidin; [3]): 0.65
HBD2 expression (Mean) [1]: 5.68
HBD3 expression (Mean) (HBD3): 1.39

peptidoglycan [PGN]
Cathelicidin mRNA expression (Mean) (cathelicidin; [3]): 1.18
HBD2 expression (Mean) [1]: 3.26
HBD3 expression (Mean) (HBD3): 0.61

C=CC[C@@H]1/C=C(\C)C[C@H](C)C[C@H](OC)[C@H]2O[C@@](O)(C(=O)C(=O)N3CCCC[C@H]3C(=O)O[C@H](/C(C)=C/[C@@H]3CC[C@@H](O)[C@H](OC)C3)[C@H](C)[C@@H](O)CC1=O)[C@H](C)C[C@@H]2OC [Tacrolimus, tacrolimus]
Cathelicidin mRNA expression (means) (cathelicidin; [4]): 5.47
Cathelicidin mRNA expression (means) (cathelicidin; [5]): 0.67
Cathelicidin mRNA expression (means) (cathelicidin; [6]): 0.77
Cathelicidin mRNA expression (means) (cathelicidin; [7]): 3.34

Malp-2
Cathelicidin mRNA expression (Mean) (cathelicidin; [3]): 2.29
Cathelicidin mRNA expression (means) (cathelicidin; [4]): 1.53
Cathelicidin mRNA expression (means) (cathelicidin; [6]): 3.19
HBD2 expression (Mean) [1]: 119.16
HBD3 expression (Mean) (HBD3): 3.51

C=C1/C(=C\C=C2/CCC[C@]3(C)[C@@H]([C@H](C)CCCC(C)(C)O)CC[C@@H]23)C[C@@H](O)C[C@@H]1O [1.25D3, 1.25 D-hydroxy calciferol]
Bacterial growth OD600 (Mean) ([2]; 0 h): 0.2203
Bacterial growth OD600 (Mean) ([2]; 2 h): 0.2677
Bacterial growth OD600 (Mean) ([2]; 4 h): 0.301
Bacterial growth OD600 (Mean) ([2]; 5 h): 0.3963
Bacterial growth OD600 (Mean) ([2]; 6 h): 0.513
Bacterial growth OD600 (Mean) ([2]; 8 h): 0.6203
Cathelicidin mRNA expression (Mean) (cathelicidin; Example 4, 10 nM pimecrolimus, 1 nM 1.25 D3, 0.1 μg/ml Malp-2 or combination): 2.76
Cathelicidin mRNA expression (Means of N = 3) (cathelicidin; 0 h): 1.00
Cathelicidin mRNA expression (Means of N = 3) (cathelicidin; 8 h): 35.04
Cathelicidin mRNA expression (Means of N = 3) (cathelicidin; 24 h): 134.03
Cathelicidin mRNA expression (Means of N = 3) (cathelicidin; 48 h): 92.37
TLR1 mRNA expression (Mean) (TLR1): 1.93
TLR2 mRNA expression (Mean) (TLR2; Example 3, 1 nM 1.25D3): 0.66
TLR2 mRNA expression (Mean) (TLR2; [8]): 0.10
TLR2 mRNA expression (Means of N = 3) (TLR2; 0 h): 1.00
TLR2 mRNA expression (Means of N = 3) (TLR2; 8 h): 1.32
TLR2 mRNA expression (Means of N = 3) (TLR2; 24 h): 1.51
TLR2 mRNA expression (Means of N = 3) (TLR2; 48 h): 1.55
TLR6 mRNA expression (Mean) (TLR6): 1.01
CD14 mRNA expression (Mean) (CD14; Example 3, 1 nM 1.25D3): 3.01
CD14 mRNA expression (Mean) (CD14; [8]): 3.01
CD14 mRNA expression (Means of N = 3) (CD14; 0 h): 0.71
CD14 mRNA expression (Means of N = 3) (CD14; 8 h): 38.35
CD14 mRNA expression (Means of N = 3) (CD14; 24 h): 12.26
CD14 mRNA expression (Means of N = 3) (CD14; 48 h): 0.93

CO[C@H]1C[C@@H]2CC[C@@H](C)[C@@](O)(O2)C(=O)C(=O)N2CCCC[C@H]2C(=O)O[C@H]([C@H](C)C[C@@H]2CC[C@@H](O)[C@H](OC)C2)CC(=O)[C@H](C)/C=C(\C)[C@@H](O)[C@@H](OC)C(=O)[C@H](C)C[C@H](C)/C=C/C=C/C=C/1C [Rapamycin, rapamycin]
Cathelicidin mRNA expression (means) (cathelicidin; [4]): 4.03
Cathelicidin mRNA expression (means) (cathelicidin; [5]): 5.13
Cathelicidin mRNA expression (means) (cathelicidin; [6]): 12.38
Cathelicidin mRNA expression (means) (cathelicidin; [7]): 5.85
